From ChEMBL document CHEMBL1201862, “PubChem BioAssay data set” (2004) come the findings set out here.

Among the test systems are A549; EKVX; HL-60; IGROV-1; NCI-H23; OVCAR-8; SF-295; SF-539; SK-MEL-28; SK-MEL-2; SK-MEL-5; SN12C; SNB-19; SNB-75; SNB-78; HOP-62; HT-29; MCF7; NCI-H522; UACC-62.
Common to all, as to assay: NCI tumour cell line growth inhibition, 48 h

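Dose response: 5 concentrations. Exposure: 48 h. Format: 96-well plates. Endpoint: linear interpolation; highest concentration if not reached. GI50 is the concentration that inhibits growth by half.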 Activity calls are given as the source filed them. Cut-off read from the data, not from the text of the source: active = GI50 up to about 1.1 µM and inactive = higher.

As for `O=C(O)C(Cl)(Cl)Cl`, the GI50 in the assay on A549, with EKVX, in the assay with HL-60, with IGROV-1, in the assay on NCI-H23 and in the assay on OVCAR-8 was > 100 µM (inactive) in each case. The GI50 in the assay on SF-295, in the assay with SF-539, with SK-MEL-28, in the assay with SK-MEL-2, with SK-MEL-5 and with SN12C was > 100 µM (inactive) each time. Besides, the GI50 in the assay on SNB-19 is > 100 µM (inactive); with SNB-75, 63.1 µM (inactive); in the assay on SNB-78, > 100 µM (inactive).
On to `CC(C)Cc1ccc(C(C)C(=O)N2CCN(/C=C/c3ccccc3)CC2)cc1` (configuration not stated), for which the GI50 in the assay on A549 is 11.5 µM (inactive); in the assay on EKVX it was 15.8 µM (inactive); in the assay on HL-60, 3.94 µM (inactive); in the assay on HOP-62, 15.8 µM (inactive); in the assay with HT-29, 14.7 µM (inactive); with IGROV-1, 15.1 µM (inactive). Further, the GI50 with MCF7 was 16 µM (inactive); in the assay with NCI-H23, 13.2 µM (inactive); in the assay with NCI-H522 it was 11.6 µM (inactive); in the assay with OVCAR-8, 14.5 µM (inactive); in the assay on SF-295, 15.9 µM (inactive); in the assay with SF-539, 15.2 µM (inactive). The GI50 in the assay on SK-MEL-28 is 17.7 µM (inactive); with SK-MEL-2 it was 13.6 µM (inactive); in the assay with SK-MEL-5, 12.1 µM (inactive); in the assay on SN12C, 15.8 µM (inactive); in the assay on SNB-19, 2.79 µM (inactive); in the assay on SNB-75 it was 14 µM (inactive). The GI50 with SNB-78 is 25.1 µM (inactive); with UACC-62 it was 13.4 µM (inactive).
Consider `CC(C)Cc1cccc(C(C)C)c1NC(=O)CCC(=O)N/N=C1\C(=N/NC(=O)CCC(=O)Nc2c(C(C)C)cccc2C(C)C)C(c2ccc3c(c2)OCO3)Oc2ccccc21` (configuration not stated), for which the GI50 was 65.3 µM (inactive) in the assay with A549; 9.64 µM (inactive) in the assay with EKVX; 34.2 µM (inactive) in the assay with HL-60; 71.9 µM (inactive) in the assay on HOP-62; 43.8 µM (inactive) in the assay with HT-29; 29.5 µM (inactive) with IGROV-1. In addition, the GI50 with NCI-H23 was > 100 µM (inactive); with NCI-H522 it was 19.5 µM (inactive); in the assay with OVCAR-8, 69.3 µM (inactive); in the assay with SF-295, 48 µM (inactive); in the assay with SF-539, 97.7 µM (inactive); in the assay with SK-MEL-28, > 100 µM (inactive). The GI50 was > 100 µM (inactive) in the assay with SK-MEL-2; > 100 µM (inactive) in the assay on SK-MEL-5; 43.2 µM (inactive) with SN12C; 91 µM (inactive) with SNB-19; 49.2 µM (inactive) in the assay with SNB-75; 94 µM (inactive) in the assay on SNB-78. In the assay with UACC-62, the GI50 was 78.3 µM (inactive).
For the molecule `CC(C)(C)OC(=O)C1=C(C(=O)OC(C)(C)C)SC2(S1)C(C(=O)OC(C)(C)C)=C(C(=O)OC(C)(C)C)Sc1c2ssc1=O`, the GI50 in the assay on A549 is 72.3 µM (inactive); in the assay on EKVX it was 79.3 µM (inactive); in the assay on HL-60 it was 39.4 µM (inactive); in the assay with HOP-62 it was 64.9 µM (inactive); with HT-29, 86.5 µM (inactive); with IGROV-1 it was 59.4 µM (inactive). Also, the GI50 with MCF7 is 49.2 µM (inactive); with NCI-H23 it was 95.1 µM (inactive); in the assay with NCI-H522, 49.3 µM (inactive); with OVCAR-8, 49.9 µM (inactive); in the assay with SF-295 it was > 100 µM (inactive); with SK-MEL-28, 73.1 µM (inactive). Also, the GI50 with SK-MEL-2 is 72.9 µM (inactive); in the assay with SK-MEL-5, > 100 µM (inactive); in the assay with SN12C, 38.3 µM (inactive); in the assay on SNB-19, > 100 µM (inactive); in the assay on UACC-62, 31.3 µM (inactive).
On to `COC(=O)c1ccc(/N=N/N(C)COc2ccc(Br)cc2)cc1`, for which the GI50 in the assay with A549 was 66.7 µM (inactive); in the assay on EKVX, > 75.2 µM (inactive); in the assay with HL-60, 20.2 µM (inactive); in the assay with HOP-62, > 100 µM (inactive); in the assay with HT-29, 49.3 µM (inactive); with IGROV-1 it was > 100 µM (inactive). For the same molecule, the GI50 in the assay with MCF7 is > 58.3 µM (inactive); in the assay with NCI-H23 it was > 68.5 µM (inactive); in the assay with NCI-H522, 43.5 µM (inactive); with OVCAR-8 it was > 81.5 µM (inactive); in the assay with SF-295 it was > 60.8 µM (inactive); with SF-539 it was > 100 µM (inactive). Also, the GI50 in the assay with SK-MEL-28 is > 100 µM (inactive); in the assay on SK-MEL-2, > 100 µM (inactive); in the assay with SK-MEL-5, 55.3 µM (inactive); in the assay on SN12C, 68.5 µM (inactive); in the assay on SNB-19, > 100 µM (inactive); in the assay on SNB-75, 57.3 µM (inactive). In addition, the results for the GI50 in the assay on SNB-78 and with UACC-62 were > 100 µM (inactive) and 60 µM (inactive), respectively.
In the case of `CCOc1ccc(C2=C(Cl)c3cc(OC)c(OC)cc3C2Cl)cc1` (configuration not stated), the GI50 in the assay on EKVX is 66.7 µM (inactive); with HL-60, 13.4 µM (inactive); in the assay with HT-29 it was 32.1 µM (inactive); in the assay on IGROV-1 it was 72.4 µM (inactive); in the assay with NCI-H23, 44.4 µM (inactive); in the assay with NCI-H522, 17.2 µM (inactive). For the same molecule, the GI50 in the assay with OVCAR-8 is 36.4 µM (inactive); with SF-295 it was 35 µM (inactive); with SF-539 it was 29.8 µM (inactive); in the assay on SK-MEL-28 it was 87.5 µM (inactive); in the assay with SK-MEL-2 it was 23.1 µM (inactive); in the assay on SK-MEL-5 it was 18.3 µM (inactive). In addition, the GI50 in the assay with SN12C is 42.4 µM (inactive); in the assay with SNB-19, > 100 µM (inactive); with SNB-75, 44.1 µM (inactive); in the assay with SNB-78, 27.4 µM (inactive); in the assay on UACC-62, 26.2 µM (inactive).
For the molecule `CCCC(=O)OCC1OC(n2ccc(N)nc2=O)C(OC(=O)CCC)C1OC(=O)CCC` (configuration not stated), the GI50 with A549 is 8.05 µM (inactive); in the assay with EKVX, 2.25 µM (inactive); with HL-60, 1.67 µM (inactive); with HOP-62 it was 0.0957 µM (active); in the assay on HT-29, 99.3 µM (inactive); in the assay on IGROV-1 it was > 63 µM (inactive). Besides, the GI50 was 8.09 µM (inactive) in the assay on MCF7; 5.01 µM (inactive) with NCI-H23; 10.6 µM (inactive) in the assay on NCI-H522; 6.1 µM (inactive) in the assay with OVCAR-8; > 73.5 µM (inactive) with SF-295; 77.3 µM (inactive) in the assay on SF-539. For the same molecule, the GI50 in the assay with SK-MEL-28 was 15.1 µM (inactive); in the assay on SK-MEL-2, > 85.9 µM (inactive); in the assay on SK-MEL-5 it was > 86.5 µM (inactive); in the assay with SN12C it was 16.5 µM (inactive); in the assay with SNB-19, 24.8 µM (inactive); in the assay on SNB-75, > 48.9 µM (inactive). The GI50 in the assay on SNB-78 is > 100 µM (inactive); with UACC-62 it was 26.4 µM (inactive).
Regarding `CC(C)(C)OC(=O)NCCc1ccc(N)cc1`, the GI50 with A549 is > 100 µM (inactive); in the assay with EKVX, > 100 µM (inactive); in the assay with HL-60 it was 17.5 µM (inactive); in the assay with HOP-62, > 100 µM (inactive); in the assay with HT-29, > 100 µM (inactive); in the assay with IGROV-1, > 100 µM (inactive). The GI50 was > 100 µM (inactive) with MCF7; > 100 µM (inactive) in the assay on NCI-H522; > 100 µM (inactive) in the assay with OVCAR-8; 49.2 µM (inactive) with SF-295; > 100 µM (inactive) in the assay with SK-MEL-28; 33 µM (inactive) in the assay with SK-MEL-5. Further, the GI50 with SNB-19 and with UACC-62 was > 100 µM (inactive) in each case.
With `CC12CCC(C(=O)N3CC=CCC3)(OC1=O)C2(C)C` (configuration not stated), the GI50 with A549, with EKVX, in the assay with HL-60, in the assay with HOP-62, with HT-29 and in the assay on IGROV-1 was > 100 µM (inactive) in each case. Moreover, the GI50 in the assay with MCF7, in the assay on NCI-H23, in the assay on NCI-H522, in the assay on OVCAR-8, in the assay on SF-295 and with SF-539 was > 100 µM (inactive) in each case. Besides, the GI50 in the assay on SK-MEL-28, with SK-MEL-2, with SK-MEL-5, in the assay with SN12C, in the assay with SNB-19 and with SNB-75 was > 100 µM (inactive) each time. The GI50 with SNB-78 and in the assay with UACC-62 was > 100 µM (inactive) throughout.
